Experiments:
HepG2 cells = assay: ACAT inhibitory activity (anti-foamation activity) in HepG2 cells; type: cell-based; conditions: Homo sapiens, 25-OH cholesterol 10 μg/ml, 18 hours, read-out: Enzyme (HepG2) IC50
Experimental: (§1) J774 cells or HepG2 cells were spread on a 24-well plate. The cells were incubated in a 5% CO2 incubator at 37° C. for 24 hours using DMEM in the case of the J774 cells and a MEM culture solution in the case of the HepG2 cells (both containing 10% fetal calf serum).
(§2) The medium was removed, and the residue was washed twice with PBS, then extracted with 1.5 ml of a hexane:isopropanol (3:2) mixture, and concentrated to dryness. The extract was dissolved in 0.2 ml of isopropanol containing 10% Triton X-100. Total cholesterol (TC) and free cholesterol (FC) were measured using Cholesterol E Test Wako (supplied by Wako Pure Chemical Industries, Ltd.) and Free Cholesterol E Test Wako (supplied by Wako Pure Chemical Industries, Ltd.).
(§3) The cell extract residue was solubilized in 0.25 ml of 2N NaOH at 37° C. for 30 minutes, and the protein amount was measured using BCA Protein Assay Reagent (Pierce).
(§4) The amount of cholesterol based on the protein was calculated from the difference between TC and FC, and an IC50 value was obtained from the calculation in contrast with the control.

J774 cells = assay: ACAT inhibitory activity (anti-foamation activity) in J774 cells; type: cell-based; conditions: for IC50: Mus musculus, J774 cells, 25-OH cholesterol 10 μg/ml, 18 hours, read-out: Enzyme (J774) IC50; for IC50 (HepG2)/IC50 (J774): ratio HepG2 / J774
Experimental: as §1, §2, §3, §4

[1] = molecular target: T1, ACAT (enzyme solution derived from the small intestine of a rabbit); assay: ACAT inhibitory activity, enzyme solution from rabbit small intestine; type: biochemical; conditions: B‡: the small intestine
T1 construct: An enzyme solution derived from the small intestine was prepared from the small intestine of a rabbit that had eaten a normal food
Experimental: (§5) A microsome was prepared from the breast aorta of a rabbit which had been fed with 1% cholesterol food for 8 weeks in a usual manner, and suspended in a 0.15 M phosphate buffer solution (pH 7.4) to form an enzyme solution. An enzyme solution derived from the small intestine was prepared from the small intestine of a rabbit that had eaten a normal food.
(§6) To this solution were added 10 μl of the enzyme solution, and the mixture was reacted at 37° C. for 5 minutes (for 3 minutes in the case of the small intestine). Then, 3 ml of a chloroform/methanol (2/1) mixture and 0.5 ml of 0.04 N hydrochloric acid were added thereto to stop the reaction. The lipid was then extracted. The solvent layer was concentrated to dryness, and dissolved in hexane. The solution was spotted on a TLC plate(supplied by Merck Co.). The elution was conducted with a hexane:ether:acetic acid (75:25:1) mixture.
(§7) The radioactivity of the resulting cholesterol ester fraction was measured using BAS 2000 (supplied by Fuji Photo Film Co., Ltd.). An IC50 value was obtained from the calculation in contrast with a control containing only DMSO.

[2] = molecular target: ACAT (microsome from the breast aorta of a rabbit) (Oryctolagus cuniculus, UniProt G1SUQ0); assay: ACAT inhibitory activity, microsome from rabbit breast aorta (blood vessel wall enzyme); type: biochemical; conditions: microsome from breast aorta of cholesterol-fed rabbit
ACAT (microsome from the breast aorta of a rabbit), sequence (G1SUQ0 entry or part of it): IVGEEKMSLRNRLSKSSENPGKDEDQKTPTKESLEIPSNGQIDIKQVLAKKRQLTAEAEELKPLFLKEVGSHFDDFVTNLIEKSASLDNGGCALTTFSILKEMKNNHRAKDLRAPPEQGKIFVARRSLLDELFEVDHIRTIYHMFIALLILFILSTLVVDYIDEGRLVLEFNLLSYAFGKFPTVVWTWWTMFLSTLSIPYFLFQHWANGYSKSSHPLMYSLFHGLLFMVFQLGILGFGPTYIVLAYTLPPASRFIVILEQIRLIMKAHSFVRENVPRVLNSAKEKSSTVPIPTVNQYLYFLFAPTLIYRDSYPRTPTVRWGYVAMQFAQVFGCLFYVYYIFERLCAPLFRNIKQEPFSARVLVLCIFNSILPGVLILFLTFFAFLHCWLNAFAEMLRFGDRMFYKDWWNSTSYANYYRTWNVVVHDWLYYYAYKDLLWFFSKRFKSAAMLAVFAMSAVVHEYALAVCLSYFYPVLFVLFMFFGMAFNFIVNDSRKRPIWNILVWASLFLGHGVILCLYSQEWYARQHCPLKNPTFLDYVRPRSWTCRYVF
Experimental: as §5, §6, §7

| melting point [°C] | IC50 (J774 cells) [nM] | Compound | also measured |
| --- | --- | --- | --- |
| 76 to 78 | 2.7 | Cc1cc(SC(C)C)c(NC(=O)CCCCCCSc2nc3cccc(C(F)(F)F)c3o2)c(SC(C)C)n1 [Compound No. 1292, 7-(7-trifluoromethylbenzoxazol-2-ylthio)-N-[2,4-bis(isopropylthio)-6-methyl-3-pyridyl]heptanamide] | IC50 (HepG2 cells): 30 nM; IC50 (HepG2)/IC50 (J774) (J774 cells): 11.1 |
| 97 to 98 | 4.2 | Cc1cc(SC(C)C)c(NC(=O)CCCCCCCCSc2nc3cccc(C(F)(F)F)c3o2)c(SC(C)C)n1 [Compound No. 1294, 9-(7-trifluoromethylbenzoxazol-2-ylthio)-N-[2,4-bis(isopropylthio)-6-methyl-3-pyridyl]nonanamide] | IC50 (HepG2 cells): 2.4 nM; IC50 (HepG2)/IC50 (J774) (J774 cells): 0.6 |
|  | 560 | CC(C)c1cccc(C(C)C)c1NC(=O)C(C)(C)CCCOc1ccc2c(c1)C=C(c1nccn1C)C(CCc1ccc(F)cc1)O2 (stereo not drawn) [Control 1, 5-[2-(2-(4-fluorophenyl)ethyl)-3-(1-methyl-1H-imidazol-2-yl)-2H-1-benzopyran-6-yl]oxy-2,2-dimethyl-N-(2,6-diisopropylphenyl)pentanamide, reference compound] | IC50 [1]: 870 nM |
|  | 320 | CCCCCCCCCN(CC(C)(C)C)C(=O)N[C@H]1CCCC[C@@H]1OC(=O)CCNC(=O)C1OC(C)(C)OCC1(C)C (stereo partly drawn) [Control 3, N-(2,2,5,5-tetramethyl-1,3-dioxan-4-ylcarbonyl)-β-alanine 2 (S)-[N′-(2,2-dimethylpropyl)-N′-nonylureido]-1(S)-cyclohexyl ester] | IC50 [1]: 56 nM; IC50 [2]: 34 nM |
|  | 120 | CCCCCCCN(CCCCCSc1nc(-c2ccccc2)c(-c2ccccc2)[nH]1)c1nc2ccccc2o1 [Control 4, [5-(4,5-diphenyl-1H-imidazol-2-ylthio)pentyl]-N-heptyl-2-benzoxazolamie, reference compound] | IC50 [1]: 37 nM |
|  | 1900 | CC(C)c1cccc(C(C)C)c1NC(=O)CCCCCSc1nc2ccccc2o1 [Control 5, 6-(benzoxazol-2-ylthio)-N-(2,6-diisopropylphenyl)hexanamide, reference compound] | IC50 [1]: 65 nM |
| 123 to 124 |  | CSc1cc(C)nc(SC)c1NC(=O)CCCCCCCCSc1nc2ccccc2o1 [compound 788, 9-(benzoxazol-2-ylthio)-N-[2,4-bis(methylthio)-6-methyl-3-pyridyl]nonanamide] |  |
| 131 to 133 |  | CSc1cc(C)nc(SC)c1NC(=O)CCCSc1nc2ccccc2s1 [compound 793, 4-(benzothiazol-2-ylthio)-N-[2,4-bis(methylthio)-6-methyl-3-pyridyl]butanamide] |  |
| 123 to 125 |  | CSc1cc(C)nc(SC)c1NC(=O)CCCCCSc1nc2ccccc2s1 [compound 795, 6-(benzothiazol-2-ylthio)-N-[2,4-bis(methylthio)-6-methyl-3-pyridyl]hexanamide] |  |
| 126 to 127 |  | CSc1cc(C)nc(SC)c1NC(=O)CCCCCCCCSc1nc2ccccc2s1 [compound 798, 9-(benzothiazol-2-ylthio)-N-[2,4-bis(methylthio)-6-methyl-3-pyridyl]nonanamide] |  |
| 177 to 179 |  | CSc1cc(C)nc(SC)c1NC(=O)CCCSc1nc2ccccc2[nH]1 [compound 803, 4-(benzimidazol-2-ylthio)-N-[2,4-bis(methylthio)-6-methyl-3-pyridyl]butanamide] |  |
| 139 to 141 |  | CSc1cc(C)nc(SC)c1NC(=O)CCCCCSc1nc2ccccc2[nH]1 [compound 805, 6-(benzimidazol-2-ylthio)-N-[2,4-bis(methylthio)-6-methyl-3-pyridyl]hexanamide] |  |
| 143 to 145 |  | CCSc1cc(C)nc(SCC)c1NC(=O)CSc1nc2ccccc2o1 [compound 811, 2-(benzoxazol-2-ylthio)-N-[2,4-bis(ethylthio)-6-methyl-3-pyridyl]acetamide] |  |
| 100 to 103 |  | CCSc1cc(C)nc(SCC)c1NC(=O)CCCCCSc1nc2ccccc2o1 [compound 815, 6-(benzoxazol-2-ylthio)-N-[2,4-bis(ethylthio)-6-methyl-3-pyridyl]hexanamide] |  |
| 84 to 87 |  | CCSc1cc(C)nc(SCC)c1NC(=O)CCCCCCCCSc1nc2ccccc2o1 [compound 818, 9-(benzoxazol-2-ylthio)-N-[2,4-bis(ethylthio)-6-methyl-3-pyridyl]nonanamide] |  |
| 119 to 120 |  | CCSc1cc(C)nc(SCC)c1NC(=O)CSc1nc2ccccc2s1 [compound 821, 2-(benzothiazol-2-ylthio)-N-[2,4-bis(ethylthio)-6-methyl-3-pyridyl]acetamide] |  |
| 81 to 83 |  | CCSc1cc(C)nc(SCC)c1NC(=O)CCCCCSc1nc2ccccc2s1 [compound 825, 6-(benzothiazol-2-ylthio)-N-[2,4-bis(ethylthio)-6-methyl-3-pyridyl]hexanamide] |  |
| 182 to 183 |  | CCSc1cc(C)nc(SCC)c1NC(=O)CSc1nc2ccccc2[nH]1 [compound 831, 2-(benzimidazol-2-ylthio)-N-[2,4-bis(ethylthio)-6-methyl-3-pyridyl]acetamide] |  |
| 128 to 129 |  | Cc1cc(SC(C)C)c(NC(=O)CCCSc2nc3ccccc3o2)c(SC(C)C)n1 [compound 843, 4-(benzoxazol-2-ylthio)-N-[2,4-bis(isopropylthio)-6-methyl-3-pyridyl]butanamide] |  |

Reference: patent US7414066B2, “Amide compounds and medications containing the same technical field” (Kowa Company Ltd., priority 1999, dated 2008)
